The text below walks through data of US9834521B2, “Choline kinase inhibitors” (ARIAD Pharmaceuticals, Inc., priority 2013, dated 2017).

Structures are written as SMILES.

One test relates to cancer cell lines. Description: Cellular Growth Inhibition Assay (CyQuant Cell Proliferation Assay Kit). It is filed as cell-based. The following applies: 72 h. The procedure:
Cellular Growth Inhibition AssayVehicle or compound treated cells were assessed for cell growth after 72 hours of treatment using the CyQuant® Cell Proliferation Assay Kit (Life Technologies, Grand Island, N.Y.). […] Data are shown as mean (±SD) from ≧2 separate experiments.

For another test, the target named is T1, ChoKα protein (Homo sapiens, UniProt P35790).
T1 construct: made in house
Description: Binding affinity by surface plasmon resonance (SensiQ Pioneer, FastStep). The procedure:
KD may be measured using surface plasmon resonance (BIAcore®) technology, see, e.g., Panayotou et al, Mol. Cell. […] ChoKα protein was immobilized by standard amine coupling methods on a COOH5 sensor chip installed in a SensiQ Pioneer system. Sensograms were measured using the FastStep™ screen method with an upper concentration of 500 nM. Kinetics and affinity were obtained from fits using a 1:1 binding model.
(Surface plasmon resonance follows binding to a sensor surface in real time, without labels.)

Test [1] deals with T2, truncated form of human Choline kinase α1 that includes residues 75-457 (Homo sapiens, UniProt P35790).
T2 construct: made in house
In words: Kinase Assay, coupled (ATP regeneration) LDH/PK assay, NADH absorbance. It is filed as biochemical. The procedure:
Absorbance of NADH (340 nm) was measured over 30 min using a SpectraMax M5 (Molecular Devices). Initial reaction velocity (ΔA340/Δt) was calculated and plotted as a function of inhibitor concentration in a 2-fold dilution series. IC50 values were obtained by fitting the relative velocities to a dose-response model.

The subject of test [2] is phosphocholine levels in MDA-MB-468 cells. In words: Phosphocholine Assay (1H-NMR) in MDA-MB-468 cells. The test is classed as cell-based. The following applies: Homo sapiens, 24 hours of treatment, read-out: IC50 of pCh. As for the experimental part:
5×10^6 cells of each line were grown in the presence of increasing concentration of the test compound or vehicle (DMSO) for 24 hours, then counted and viability checked by Trypan Blue Exclusion protocol. 5×10^6 viable cells were washed twice in ice cold D-PBS, then solubilized by vortexing for 30 seconds in 6 mL ice cold 100% methanol. 6 mL of chloroform and 6 mL of water were added and the mixture vortexed again. After centrifugation for 10 minutes @ 5,220 rpms, 10 mL of the aqueous phase is removed and lyophilized. The samples were analyzed by ^1H-NMR to determine phosphocholine levels.
Similarly, dose dependent inhibition of phosphocholine levels in MDA-MB-468 cells by the compound provided in Example 45 was determined by ^1H-NMR analysis after 24 hours of treatment with increasing concentrations consisting of 0.1 μM, 1.0 μM, 10 μM, 20 μM, and 80 μM. By this method, the IC50 of pCh was determined to be 3 μM of the compound provided in Example 45.

T1 sequence (P35790 75-457): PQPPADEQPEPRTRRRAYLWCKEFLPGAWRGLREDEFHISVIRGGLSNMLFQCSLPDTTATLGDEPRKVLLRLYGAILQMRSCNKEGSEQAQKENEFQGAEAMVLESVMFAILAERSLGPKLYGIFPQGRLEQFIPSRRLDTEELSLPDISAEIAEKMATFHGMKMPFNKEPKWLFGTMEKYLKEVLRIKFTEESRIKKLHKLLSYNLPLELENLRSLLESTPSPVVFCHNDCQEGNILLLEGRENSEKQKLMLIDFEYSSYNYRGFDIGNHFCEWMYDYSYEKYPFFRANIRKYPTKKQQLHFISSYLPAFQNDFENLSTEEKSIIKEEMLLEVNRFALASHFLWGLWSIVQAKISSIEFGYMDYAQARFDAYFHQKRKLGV
T2 sequence (P35790 75-457): as above

Take `CN1CCCN(Cc2ccc(-c3ccc(CN4CCCN(C)CC4)cc3)cc2)CC1` [Example 45, 4,4′-bis((4-methyl-1,4-diazepan-1-yl)methyl)-1,1′-biphenyl]: in the test on cancer cell lines, the GI50 – broadly, the concentration giving 50% growth inhibition – was below 5000 nM. The Kd (usually the concentration at which binding is half-saturated) at ChoKα protein was below 60000 nM. Further, the IC50 (commonly the concentration that gives 50% inhibition) was below 200 nM in test [1] and 3000 nM in test [2].
